Literature values in paper PMC11604869, “Stereoselective block of the hERG potassium channel by the Class Ia antiarrhythmic drug disopyramide” (Cellular and Molecular Life Sciences: CMLS, 2024).

How the values were obtained:
[1] = parameters: method as in PMID 6740739
rat ventricular ITO = tested on: rat ventricular ITO; parameters: method as in PMID 11327018; conditions: 100 μM
rabbit ventricular ITO = tested on: rabbit ventricular ITO; parameters: method as in PMID 9550298; conditions: 30 μM
[2] = tested on: rate corrected QT interval; parameters: method as in PMID 2439842; conditions: for effect on rate corrected QT interval: acute infusion, healthy human volunteers
[3] = plasma
hERG = tested on: hERG; parameters: method as in PMID 12466236

Compound: CC(C)N(CCC(C(N)=O)(c1ccccc1)c1ccccn1)C(C)C (racemic) [racemic disopyramide, 4-(diisopropylamino)−2-phenyl-2-(pyridin-2-yl) butanamide]
- therapeutic total plasma levels [1]: 6 to 8 µM
- effect on rat ventricular ITO (rat ventricular ITO): no effect
- reduction of rabbit ventricular ITO amplitude (rabbit ventricular ITO): ~ 33%

Compound: CC(C)N(CC[C@@](C(N)=O)(c1ccccc1)c1ccccn1)C(C)C [R(−) disopyramide]
- effect on rate corrected QT interval [2]: not
- unbound fractions [3]: 0.338

Compound: CC(C)N(CC[C@](C(N)=O)(c1ccccc1)c1ccccn1)C(C)C [S(+) disopyramide]
- effect on rate corrected QT interval [2]: prolongation of the rate corrected QT interval
- negative inotropic effect in humans ([2]; compared with R(−) disopyramide): smaller negative inotropic effect
- unbound fractions [3]: 0.208

Compound: CCCCN1CCCC[C@H]1C(=O)Nc1c(C)cccc1C [levobupivacaine]
- potency of IhERG inhibition relative to dextrobupivacaine (hERG): twofold
